Test results taken from article PMC8214221, “Sequence determinants in the cathelicidin LL-37 that promote inflammation via presentation of RNA to scavenger receptors” (The Journal of Biological Chemistry, 2021).
Residues, ends and D or L forms follow the SMILES beside them.

Experiments:
[1] = system: U1 dsRNA binding on the surface of NHEKs; assay: Surface binding of Alexa 488-labeled U1 dsRNA to NHEKs; format: cell-based, human; conditions: Alexa 488 U1 0.05-10 μg/ml + peptide 2.5 μM, 10 min on ice; fluorometer RFU, n = 3
Method: We also assayed the dynamics of binding of U1 dsRNA on the surface of NHEKs in the presence of LL-34 mutant peptides. NHEKs were exposed to fluorescent Alexa 488–labeled U1 at increasing concentrations (0.05–10 μg/ml) and LL-34 parent peptide, LL-34 I24A, LL-34 L31A, LL-34 K25A, and LL-34 proline at isoleucine position 20 (I20P) for 10 min on ice to allow for surface binding of U1 to cells in the presence of peptides (Fig. 5A).
Figure 5 Biophysical properties of binding of U1 dsRNA to LL-34 peptides and SRB1 protein.A, NHEKs were treated with Alexa 488–labeled U1 dsRNA or a combination of Alexa 488–labeled U1 dsRNA (0.05–10 μg/ml) and LL-34 peptides LL-34 parent, LL-34 I24A, LL-34 K25A, LL-34 L31A, and LL-34 I20P at 2.5 μM as shown. The cells were prechilled on ice for 15 min before the addition of U1 dsRNA and/or LL-34 peptides, and the surface binding of U1 dsRNA was allowed for 10 min. The amount of U1 dsRNA binding to NHEKs was assessed with a fluorometer, and data are represented as relative fluorescence units (RFUs) (n = 3). B, NHEKs were similarly treated with Alexa-labeled U1 dsRNA (1.5 μg/ml) and/or unlabeled U1 dsRNA (15 μg/ml) with the addition of LL-34 parent peptide at 2.5 μM. The experiment was performed on ice for 10 min, and the relative binding of Alexa 488 U1 dsRNA was assessed on a fluorometer and is shown as RFU (n = 3) (∗p < 0.05) one-way ANOVA. C, SAXS spectra of LL-34 peptides LL-34 parent, LL-34 F5A, LL-34 I24A, and LL-34 L31A incubated with U1 dsRNA. The peptide-U1 dsRNA (P/R) ratio is varied at 1 and 2 for all conditions. The U1 dsRNA interhelical spacing (Q) was calculated by the peak position. The domain size (L) was calculated by the full width at half maximum of the first peak. LL-34, 34-amino acid peptide; NHEKs, normal human epidermal keratinocytes; SAXS, small-angle X-ray scattering.

[2] = system: S. aureus strain USA300 and SA112, GAS; assay: Bacterial growth inhibition (OD600), Gram-positive strains; format: cell-based, Staphylococcus aureus; group A Streptococcus; conditions: 0-50 µM overnight, OD 600, n = 3, S. aureus USA300, SA113 (SA112 in text)
Method: (§1) We further looked at mRNA abundance by quantitative RT-PCR (qRT-PCR) to evaluate gene expression for type 1 interferon IFNB1, chemokine CXCL10, and cytokines TSLP and IL6 in NHEKs treated with selected LL-34 parent, LL-34—F5A, I24A, F27A, and L31A—peptides either alone or in combination with U1 dsRNA for 18 h (Fig. 1, E–H).
(§2) Methicillin-resistant S. aureus USA300 and methicillin-sensitive S. aureus SA113 (American Type Culture Collection 35556) were cultured in 3% tryptic soy broth overnight at 37 °C with shaking at 250 rpm. GAS M49 strain NZ131 was cultured in Todd Hewitt broth supplemented with 1% yeast extract overnight at 37 °C without shaking. E. coli R1 strain RS218 was cultured in LB broth overnight at 37 °C with shaking at 250 rpm. MIC values were determined using a round-bottom 96-well microdilution method with RPMI cell culture media (as a source of Ca^2+ and Mg^2+) supplemented with tryptic soy broth, Todd Hewitt broth/yeast extract, or LB to facilitate growth of the respective bacterial strains. Overnight bacterial cultures were subcultured into fresh broth and grown to midlate log phase indicated by an absorbance at 600 nm value between 0.8 and 1.0 for each bacterial strain. The absorbance was then normalized to provide a concentration of 1 × 10^7 colony-forming units/ml in RPMI medium. The LL-34 parent and alanine scan mutants were serially diluted into the 96-well microtiter plates containing prewarmed RPMI bacterial growth medium. A 10 μl aliquot of the midlate log phase bacteria was inoculated into the 96-well microtiter plates that contained 95 μl of RPMI medium with or without the LL-34 peptide dilutions and incubated for 16 to 18 h at […] with shaking at 200 rpm. Inhibition of growth was determined by measuring the absorbance at 600 nm readings of each well using a microplate reader (Infinite M200 Pro; Tecan). The MIC of each bacterial strain was determined by the lowest peptide concentration that inhibited more than 80% bacterial growth.
(§3) (A) NHEKs and HDMECs (B) were treated with LL34- parent peptide and all the 34 alanine substituted peptides (Pep L1A-Pep R34A) and LL37 at 2 µM for 16 h. IL-6 protein secretion was assessed with ELISA (n=3) (C-F) LL34-Parent, LL34 F5A, LL34 I24A, LL34 F27A, and LL34 L31A peptides were incubated with S. aureus USA 300, S. aureus SA113, Group A Streptococcus (GAS) and E. coli at increasing concentrations (0-50 µM) overnight, and bacterial culture growth was assayed as absorbance at OD 600 (n=3).

Escherichia coli = assay: Bacterial growth inhibition (OD600), E. coli; format: cell-based; conditions: 0-50 µM overnight, OD 600, n = 3
Method: as §1, §2, §3

SMILES	Binding of Alexa 488-labeled U1 dsRNA on the NHEK cell surface [1]	Capacity to inhibit growth of Gram-positive bacteria [2]	Action against Gram-negative E. coli (Escherichia coli)
CC[C@H](C)[C@H](NC(=O)[C@H](CCCCN)NC(=O)[C@H](CCC(=O)O)NC(=O)[C@H](CCCCN)NC(=O)[C@H](CO)NC(=O)[C@H](CCCCN)NC(=O)[C@H](CCCNC(=N)N)NC(=O)[C@H](Cc1ccccc1)NC(=O)[C@H](Cc1ccccc1)NC(=O)[C@H](CC(=O)O)NC(=O)CNC(=O)[C@H](CC(C)C)NC(=O)[C@@H](N)CC(C)C)C(=O)NCC(=O)N[C@@H](CCCCN)C(=O)N[C@@H](CCC(=O)O)C(=O)N[C@@H](Cc1ccccc1)C(=O)N[C@@H](CCCCN)C(=O)N[C@@H](CCCNC(=N)N)C(=O)N[C@H](C(=O)N[C@H](C(=O)N[C@@H](CCC(N)=O)C(=O)N[C@@H](CCCNC(=N)N)C(=O)N[C@@H](C)C(=O)N[C@@H](CCCCN)C(=O)N[C@@H](CC(=O)O)C(=O)N[C@@H](Cc1ccccc1)C(=O)N[C@@H](CC(C)C)C(=O)N[C@@H](CCCNC(=N)N)C(=O)N[C@@H](CC(N)=O)C(=O)N[C@@H](CC(C)C)C(=O)N[C@H](C(=O)N1CCC[C@H]1C(=O)N[C@@H](CCCNC(=N)N)C(=O)O)C(C)C)C(C)C)[C@@H](C)CC [LL-34—I24A] (H-LLGDFFRKSKEKIGKEFKRIVQRAKDFLRNLVPR-OH)	nonsaturable binding	increased capacity to inhibit growth of most of the tested Gram-positive bacteria	little action
CC[C@H](C)[C@H](NC(=O)[C@H](CCCCN)NC(=O)[C@H](CCC(=O)O)NC(=O)[C@H](CCCCN)NC(=O)[C@H](CO)NC(=O)[C@H](CCCCN)NC(=O)[C@H](CCCNC(=N)N)NC(=O)[C@H](Cc1ccccc1)NC(=O)[C@H](Cc1ccccc1)NC(=O)[C@H](CC(=O)O)NC(=O)CNC(=O)[C@H](CC(C)C)NC(=O)[C@@H](N)CC(C)C)C(=O)NCC(=O)N[C@@H](CCCCN)C(=O)N[C@@H](CCC(=O)O)C(=O)N[C@@H](Cc1ccccc1)C(=O)N[C@@H](CCCCN)C(=O)N[C@@H](CCCNC(=N)N)C(=O)N[C@H](C(=O)N[C@H](C(=O)N[C@@H](CCC(N)=O)C(=O)N[C@@H](CCCNC(=N)N)C(=O)N[C@H](C(=O)N[C@@H](CCCCN)C(=O)N[C@@H](CC(=O)O)C(=O)N[C@@H](Cc1ccccc1)C(=O)N[C@@H](CC(C)C)C(=O)N[C@@H](CCCNC(=N)N)C(=O)N[C@@H](CC(N)=O)C(=O)N[C@@H](C)C(=O)N[C@H](C(=O)N1CCC[C@H]1C(=O)N[C@@H](CCCNC(=N)N)C(=O)O)C(C)C)[C@@H](C)CC)C(C)C)[C@@H](C)CC [LL-34—L31A] (H-LLGDFFRKSKEKIGKEFKRIVQRIKDFLRNAVPR-OH)	nonsaturable binding	increased capacity to inhibit growth of most of the tested Gram-positive bacteria	little action
